Experimental data: a melting point compilation (Tetko et al.; mined from patent text by program, amines drawn as free bases though some values may be those of a salt)

SMILES | melting point
CN(C)C1(c2ccccc2)CCC(NC(=S)NCCCc2ccccc2)CC1 (stereo not given) | 75 to 80 °C
CC(=O)N1CCc2c(Br)ccc([N+](=O)[O-])c2C1 | 159 to 161 °C
COc1ccc(COc2c(C)c(C)c3c(c2C)C(c2ccc(N4CCOCC4)cc2)C(C)(C)O3)cc1 (stereo not given) | 110 to 112 °C
CC(CO[N+](=O)[O-])NC(=O)[C@@H]1CSC(=O)N1 (stereo not given in full) | 112 to 114 °C
CCCc1c(OCCCOc2ccc3c(c2CCC)OC(C(=O)O)(C2CC2C(=O)O)CC3)ccc(C(C)=O)c1O (stereo not given) | 138 to 140 °C
CCc1coc2c(Cc3ccc(C(C)C)cc3)c(C)cc(C)c12 | 62 to 64 °C
OCC1OC(n2c(Cl)nc3cc(Cl)c(F)cc32)C(O)C1O (stereo not given) | 170 to 172 °C
Cc1nccn1C(=O)NC1CCCCC1 | 100 to 102 °C
Cc1cc(C)c(S(=O)(=O)N[C@@H](CNC(=O)c2ccc3c(cnn3CCc3cc(=O)[nH]c(N)n3)c2)C(=O)O)c(C)c1 | 194 to 195 °C
CCOC(=O)c1cc(NCc2c(C)cccc2C)c2nc(C)n(OC)c2c1 | 165 to 166 °C
CCOC(=O)c1ncn2c1CNC(=O)c1ccccc1-2 | 248 to 250 °C
C=CCc1ccc(C=CC(=O)c2ccc(OCC=C(C)C)cc2OCC(=O)O)cc1 | 125 to 126 °C
COc1cccc(Nc2ccnc(Nc3cc(OC)c(OC)c(OC)c3)n2)c1 | 78 °C
N#CC(C#N)=CN(N=C(C#N)C#N)c1ccc(C#N)cc1 | 231 °C
CCOC(=O)Nc1ccc(C23CC4CC(CC(C4)C2)C3)cc1 | 132 to 134 °C
COC(=O)CCC#Cc1cccc(Br)n1 | 59 to 61 °C
COc1cc(/C=C\c2cnc(N)nc2N)cc(OC)c1OC | 175 to 177 °C
CC(=S)OCc1ccc([N+](=O)[O-])cc1 | 55.5 to 57.5 °C
CC(=O)OCc1nc2cc(Cl)c(C)cc2c(=O)n1C | 110 to 112 °C
Clc1ccc(Cn2cc(C=Cc3cccnc3)c3cc(OCc4ccc5ccccc5n4)ccc32)cc1 | 169 to 171 °C
CC(=O)N1CCN(CCNc2ncc3ncnc(Nc4ccc(F)c(Cl)c4)c3n2)CC1 | 196 to 198 °C
CCCC(=O)c1ccc(OCCN2CCN(c3cc(Cl)nnc3Cl)CC2)cc1 | 140 to 141 °C
CCc1cnc2c(NC(=O)c3c(Cl)cccc3Cl)cccc2c1/C=C/C(=O)O | 235 to 236 °C

SMILES | melting point
CS(=O)(=O)CCCCC(C1CCCCC1)S(=O)(=O)c1ccc(Cl)cc1 (stereo not given) | 104 to 106 °C
CC(Oc1cccc(Cl)c1)c1nnc(N)s1 (stereo not given) | 136 to 138 °C
O=C(NCCC1CCCCC1)NCCC1CCCCC1 | 150 to 152 °C
CN1CC2CCCC(C1)C2=NO | 111 to 112 °C
CC(=O)OC1CC(=O)N(CC(N)=O)C1 (stereo not given) | 84 to 86 °C
CC1(C)OCC(COc2ccc(-c3ccc4cc(C(=O)O)ccc4c3)cc2C23CC4CC(CC(C4)C2)C3)O1 (stereo not given) | 287 °C
NS(=O)(=O)c1ccc(NC(=O)CCl)c(F)c1 | 185 to 187 °C
CC=CCN1c2cc(Cl)ccc2NC(=O)[C@@H]1C | 87 to 88 °C
COc1cccc(S(=O)(=O)N2CCCC2=O)c1 | 108 to 109 °C
COC(=O)c1ccc2oc(CCl)c(C)c2c1 | 114 to 115 °C
CC1(C)Oc2ccc([N+](=O)[O-])cc2O1 | 89 to 91 °C
CCCNC1=NS(=O)(=O)c2cc(C(=O)O)ccc2N1 | > 310 °C
COc1cc2cc(CO)c(CO)c(-c3ccnc(-n4c(=O)ccc5ccccc54)c3)c2cc1OC | > 230 °C
CN(C)CC1Cc2ccc(NC(=O)c3ccc(-c4ccc(Cl)cc4)cc3)cc2C1 (stereo not given) | 192 to 194 °C
CC(=O)c1cccc(Oc2ncccc2NC(=O)Cc2ccc(C(C)(C)O)cc2)c1 | 85 to 87 °C
COc1ccc(-c2cc(Nc3c(C)cc(C)cc3C)nc(C)n2)cc1OC | 168 to 170 °C
C=Cc1ccc(CSC2C(=O)N(c3c(Cl)cc(Cl)cc3Cl)N=C2Nc2cc(NC(C)=O)ccc2Cl)cc1 (stereo not given) | 240 °C
Cc1cccc2c1N(C(=O)OC(C)(C)C)Cc1c(-c3noc(C4CC4)n3)ncn1-2 | 189 to 192 °C
CN(C)C=C(C=O)c1ccc(Cl)cc1 | 117 to 120 °C
CSC1NC(=O)N(C)C(=O)N1C (stereo not given) | 137 to 139 °C
CNC(=N)Cc1nc(C(C)C)c(Sc2cc(Cl)cc(Cl)c2)n1C | 176 to 178 °C
CC(F)c1nc[nH]c(=O)c1Cl (stereo not given) | 190 to 191 °C
CCCCCCCCCc1nnc(C2=C(OC(C)=O)c3ccccc3S(=O)(=O)N2C)o1 | 118 to 119 °C

SMILES | melting point
O=C(Nc1ccc(C(=O)Nc2nnc(-c3cc(Cl)cc(Cl)c3O)s2)cc1)c1ccccc1 | 301 °C
CCCCCCOCOc1c(C(C)(C)C)cc(-c2ccc(C#N)c(C#N)c2)cc1C(C)(C)C | 106 to 107 °C
Cc1cccc(C2C(C#N)=C(C3CC3)Nc3n[nH]cc32)c1[N+](=O)[O-] (stereo not given) | 265 °C
Clc1ccc2ccc(/C=C/c3ccc(CN4CCc5cccc(CCc6nnn[nH]6)c54)cc3)nc2c1 | 83 to 87 °C
COc1cc2c(nc1OC)c(-c1cc3cc(F)cnc3[nH]1)cn2CCN1CCOCC1 | 218 °C
CC(O)CN(CC(C)O)C1CC(C)(C)NC(C)(C)C1 (stereo not given) | 97 to 102 °C
NCC1COc2ccc3[nH]c(=O)oc3c2O1 (stereo not given) | > 250 °C
COc1ccnc(CSc2nc3cc(C(F)(F)F)ccc3[nH]2)c1C | 148 °C
COC(=O)CNS(=O)(=O)c1ccc(N2CCC(NC[C@H](O)c3ccc(O)c(NS(C)(=O)=O)c3)CC2)cc1 | 123 to 125 °C
Cc1cc(C)c2c(c1)OC(C)(COc1ccc([N+](=O)[O-])cc1)C=C2 (stereo not given) | 116 to 118 °C
COCCOc1ccc2c(Nc3ccc(Cl)cc3Cl)c(C#N)cnc2c1 | 144 to 145 °C
COC(=O)C1=C(C)NC(N)=C(C#N)C1c1ccc(C(F)(F)F)cc1 (stereo not given) | 210 to 214 °C
CCNc1cc(C)nn1-c1c(Cl)cc(C(F)(F)F)cc1Cl | 74 to 75 °C
CCCCC(C#N)c1cccc(C(=O)c2cc3cc(C(=O)OC)sc3s2)c1 (stereo not given) | 131 °C
CN1C(=O)C(C)(C)N=C(c2ccccc2F)c2cc([N+](=O)[O-])cc(Cl)c21 | 237 to 238 °C
COCCCS(=O)(=O)NC(=O)CCc1ccc(OCCOC)cc1Oc1ncc(C(F)(F)F)cc1Cl | 112 to 113 °C
COc1cc(Nc2c(C#N)cnc3cc(I)sc23)cc(OC)c1OC | 254 to 256 °C
Cn1ncc(C(=O)N2CCOCC2)c1C(=O)Nc1ccn2nc(N3CCOCC3)nc2c1 | 206 to 208 °C
COc1cc(F)c(-c2ccc3nc(C(=O)NC(Cc4ccc(OCc5ccccc5)cc4)C(=O)O)cn3c2)c(F)c1 (stereo not given) | 219 °C
O=C(Nc1ccc(Cl)cc1)NC1N=C(c2ccccc2)c2ccccc2N(CC(=O)OCc2ccccc2)C1=O (stereo not given) | 220 to 222 °C
CCOc1ccc([N+](=O)[O-])c(NC2CCCCCC2)c1 | 83 °C
Cn1cnnc1C(c1ccc(Cl)cc1)c1ccc2c(c1)c(-c1cccc(Cl)c1)cc(=O)n2C (stereo not given) | 153 °C
COc1cccc2c1c(=O)oc(=O)n2C | 216 °C

Further lines, results first:

melting point | SMILES
95 to 96 °C | N#Cc1ccc(CC2CCN(Cc3ccccc3)CC2)cc1
164 to 165 °C | C=CCn1c(Cc2ccccc2)c(CC)c(=O)[nH]c1=O
179 to 181 °C | O=C(O)COc1c(Br)cc2oc(C(=O)c3ccccc3)cc2c1Br
122 to 123 °C | COc1ccc(C(=O)N2c3ccccc3SC2C#N)cc1 (stereo not given)
157 to 158 °C | CC(C)(C)c1ccc(CCCC(O)CC2CCCCC2)cc1NC(=O)CC1c2ccccc2Oc2ccccc21 (stereo not given)
88.5 to 89.5 °C | ClC(=NNc1ccccc1)c1ccc(Cl)cc1Cl
55 to 64 °C | O=C(O)C1CCC(OCc2ccccc2)CC1 (stereo not given)
154 °C | NCCOc1cccc(CC(Nc2cc(-c3ccc(OCc4ccccc4)cc3)ncn2)C(=O)O)c1 (stereo not given)
113 to 114 °C | COc1ccc(C(=O)CN(Cc2ccccc2)Cc2ccccc2)cc1C(N)=O
54 to 56 °C | O=c1c(NCCCO)c(Cl)cnn1COCc1ccccc1
123 °C | Cc1ccc2c(c1)c(=O)c1c(cnn1C)n2-c1cccc(I)c1
135 to 136 °C | N#Cc1ccc(-c2ccc(C(F)(F)F)cn2)cc1SCC1CC1
148 °C | CCCCOC(=O)c1ccc(C(C(N)=O)C(C)c2ccccc2N2CCCCC2)cc1 (stereo not given)
198 to 200 °C | O=C1Nc2ccc(-c3cccc(Cl)c3)cc2C(C2CC2)(C2CC2)O1
176 to 178 °C | Nc1cccc(CN2C(=O)[C@H]3CCC[C@H]3Nc3ccccc32)c1 (relative stereo)
192 to 194 °C | CCCCCCNC(=O)Nc1ccccc1C(=O)NC1CCN(C(c2ccccc2)c2ccccc2)CC1

melting point | SMILES
150 to 155 °C | CC(=Cc1ccccc1)c1ncccc1C(N)=O
219 to 220 °C | Nc1cccc2c1ccn2-c1ccnc(N[C@H]2CC[C@H](O)CC2)n1
88 to 90 °C | CC(C)(C)OC(=O)Cn1cccc(NC(=O)OCc2ccccc2)c1=O
128 to 130 °C | CCCNC(=O)CCCCCn1cnc2c(N)nc3ccccc3c21
147 to 148 °C | COc1ccc(C(=O)N2c3ccccc3C(N3CCc4ccccc43)CC2C)cc1OC (stereo not given)
169 to 170 °C | COc1cccc(CC(NC(C)=O)C(=O)O)c1OCc1ccccc1 (racemic)
167 to 168 °C | COc1cc(C(F)(F)F)nn1-c1ccc(NC(=O)c2ccccc2F)cc1
248 to 251 °C | O=C1c2cccc3c(Br)ccc(c23)C(=O)N1O
100 to 101 °C | COc1ccc(/C=C(/C#N)c2cccs2)cc1OC1CCCC1
307 to 310 °C | CCCn1c(=O)c2c(NC)n[nH]c2n(Cc2ccccc2)c1=O
170 to 172 °C | CC1=C(N)C(C)C2CC(C)(CC3CCN(c4ccc(-n5ccnc5)cc4)CC3)OC2=C1C (stereo not given)
202 to 203 °C | COc1ccccc1Oc1coc(C(=O)O)cc1=O
86 to 88 °C | CN(Cc1ccccc1)c1ccccc1C(=O)O
149 to 152 °C | Cc1cccc(C)c1N1CCc2c(C)nc3ccccc3c21
73 to 75 °C | COc1c(SCCCN2CCC(Cc3ccccc3)CC2)ccnc1CSc1nc2ccccc2[nH]1
